Some results are limits rather than exact numbers.

This series concerns human liver cytosol stability, half-life. Kind of series: NCATS Human Liver Cytosol Stability Profiling. As to conditions: higher = more stable. The procedure:
Assay submitter (PI): Pranav Shah Ph.D.
NIH Center for Advancing Translational Sciences
Over the last few decades, chemists have become skilled at designing compounds that avoid cytochrome P (CYP) 450 mediated metabolism. Typical screening assays are performed in liver microsomal fractions and it is possible to overlook the contribution of cytosolic enzymes until much later in the drug discovery process. Few data exist on cytosolic enzyme-mediated metabolism and no reliable tools are available to chemists to help design away from such liabilities. In this study, we screened 1450 compounds for liver cytosol-mediated metabolic stability and extracted transformation rules that might help medicinal chemists in optimizing compounds with these liabilities. […] Matched molecular pairs analysis was performed in conjunction with qualitative-structure activity relationship modeling to identify chemical structure transformations affecting cytosolic stability. The transformation rules were prospectively validated on the test set. In addition, selected rules were validated on a diverse chemical library and the resulting pairs were experimentally tested to confirm whether the identified transformations could be generalized. The validation results, comprising nearly 250 library compounds and corresponding half-life data, are made publicly available. The datasets were also used to generate in silico classification models, based on different molecular descriptors and machine learning methods, to predict cytosol-mediated liabilities. To the best of our knowledge, this is the first systematic in silico effort to address cytosolic enzyme-mediated liabilities (Shah 2020).
Shah, P., Siramshetty, V.B., Zakharov, A.V. et al. Predicting liver cytosol stability of small molecules. J Cheminform 12, 21 (2020). https://doi.org/10.1186/s13321-020-00426-7
Compounds are classified as unstable (t 1/2 < 30 min) or stable (t 1/2 > 30 min).
1. Shah, P. et al. An Automated High-Throughput Metabolic Stability Assay Using an Integrated High-Resolution Accurate Mass Method and Automated Data Analysis Software. Drug Metab Dispos 44, 1653-1661 (2016). PMID 27417180
On to `CN1CCN(C(=O)c2ccc3nccn3c2)CC1`, for which the half-life (commonly the time in which the quantity being followed falls by half) was above 120 min.
Next, `CN(Cc1ccccc1)C1CCOc2ccccc21` (configuration not stated): 7.6 min.
With `COc1ccc(CN2CC[C@H](c3nnc(C)o3)C2)cc1` the figure was above 120 min.
Next, `CN(CC1CCOC1)C(=O)Nc1ccccc1` (configuration not stated): above 120 min.
Compound `Cc1noc(C)c1-c1cc(-c2cccc(F)c2)cn2cncc12` registered a half-life of 90 min.
As to `COc1ccc(C(=O)N2C[C@@H](CO)[C@H](N(C)C)C2)cc1`, the half-life is above 120 min.
With `N#Cc1ccc(CN2CCC3(COc4ccccc4C(=O)N3)C2)cc1` (configuration not stated) the figure was 38.4 min; with `COc1ccc(CN2CC[C@@](C)(O)[C@H](N3CCCC3)C2)cc1`, above 120 min.
With `COc1ccc(CN2CC(N3CCc4ccccc43)C2)cc1` the figure was 82 min; with `N#Cc1ccnc(-c2nnc3ccc(NCc4cnccn4)nn23)c1`, above 120 min.
Next, `COC1CCC12CCN(C(=O)c1ccc(C#N)cc1)CC2` (configuration not stated): 79.2 min; `CCN1CCN(C(=O)Cc2cccn2-c2ccc(F)cc2)CC1`: above 120 min.
In turn, `CC(=O)N1CCC(Cc2ccc(C(=O)O)cc2)CC1` gave a half-life above 120 min.
As for `COCCNC(=O)c1nc2sccn2c1-c1cccc(OC)c1`, the half-life was above 120 min.
With `COc1cccc(CN2CC[C@H](c3nc4ccccc4[nH]3)C2)c1` the figure was above 120 min; with `Fc1cccc(Nc2ncc(-c3cncnc3)c3c2OCC3)c1`, above 120 min; with `O=c1cc(N2CCOCC2)oc2c(-c3cccc(F)c3)nccc12`, above 120 min.
`N#Cc1cncc(N2CC3CCC(C2)N3CC(F)(F)F)c1` displayed a half-life above 120 min.
Next, `N#Cc1ccc(CN2CC(Oc3ccc(F)cc3F)C2)cc1`: 62.9 min.
As to `CN1CCOC2(CCN(Cc3cccc(C#N)c3)CC2)C1=O`, the half-life is above 120 min.
`O=C(O)c1ccc(-c2ncc3cnc(-c4cccc(F)c4)cn23)cc1` yielded a half-life above 120 min.
With `O=C(O)c1ccc(-c2ccc(N3CCCCCC3)nc2)cc1` the figure was above 120 min; with `COc1ccc(-c2[nH]nc3ncc(-c4cccc(F)c4)nc23)c(C)c1`, 75.8 min.
Compound `COc1cccc(-c2cn3c(n2)N(C(=O)c2ccoc2)CCC3)c1` gave a half-life of 112 min.
As to `O=C(NCCc1cnc[nH]1)c1ccc(-c2ncc3cnc(-c4cccc(F)c4)cn23)cc1`, the half-life worked out at 14.9 min.
`C[C@@]1(O)CCN(Cc2ccc(C#N)cc2)C[C@H]1N1CCCC1` yielded a half-life above 120 min.
With `O=c1c2nc(Nc3cccc(F)c3)ccc2ncn1-c1ccccc1` the figure was 93.9 min; with `COc1cccc(CN2CCC3(CC2)OCCN(C)C3=O)c1`, above 120 min; with `Cc1cc2cc(-c3c(C)noc3C)nc(Nc3ccccc3)c2o1`, 35.6 min.
With `COc1ccccc1CN1CCC2(CC1)CC(O)CCO2` (configuration not stated) the figure was above 120 min.
`O=c1c2nc(Nc3cccc(F)c3)ccc2ncn1-c1cccnc1` displayed a half-life of 96.4 min.
Turning to `CC1(c2ccccc2)N(Cc2ccccc2)C(=O)OC12CCN(Cc1ccc(C(=O)O)cc1)CC2` (configuration not stated), the half-life is above 120 min.
With `CCOCCOC1CCN(C(=O)Nc2ccccc2)CC1` the figure was above 120 min; with `Cc1nnc([C@H]2CCN(Cc3ccc(C#N)cc3)C2)o1`, above 120 min; with `COc1ccc(CN2CC(Oc3ccc(F)c(F)c3)C2)cc1`, 30 min.
Next, `COc1ccc(C(=O)N2CCC3(CCC3OC)CC2)cc1` (configuration not stated): 70 min; `COc1cccc(-c2c(C(=O)NC3CC3)nc3sccn23)c1`: above 120 min.
Next, `Cc1cc(OC2CN(Cc3ccc(C#N)cc3)C2)ccc1F`: 43.8 min; `CN1c2cc(C(=O)Nc3ccc(S(N)(=O)=O)cc3)ccc2C(=O)N2CCCCC21` (configuration not stated): above 120 min; `CCOc1cc(=O)n2c(c1C(=O)Nc1ccc(S(N)(=O)=O)cc1)CCCC2`: above 120 min.
The compound `COc1cccc(-c2c(C(=O)N3CCCCC3)nc3sccn23)c1` yielded a half-life of 114 min.
With `O=C(c1ccc(-c2ncc3cnc(-c4cccc(F)c4)cn23)cc1)N1CCc2cccnc21` the figure was 17.3 min; with `COCCOC1CCN(C(=O)Nc2ccccc2)CC1`, above 120 min.
Consider `N#Cc1cccc(-c2cn3c(n2)N(C(=O)c2cccs2)CCC3)c1`, for which the half-life was above 120 min.
Next, `COC(=O)[C@@H]1Cc2ncn(C)c2CN1C(=O)c1ccc(C#N)cc1`: above 120 min; `N#Cc1cccc(CN2CCOC[C@H](O)C2)c1`: 51.1 min; `COc1ccc(CN2CC(Oc3ccc(F)cc3F)C2)cc1`: 36.3 min.
Next, `O=C(NCCCn1ccnc1)c1ccc(-c2ncc3cnc(-c4cccc(F)c4)cn23)cc1`: 50.8 min; `N#Cc1cccc(-c2cn3c(n2)N(C(=O)c2ccoc2)CCC3)c1`: above 120 min.
Next, `CCN1CCN(C(=O)c2cc(-c3ccc(F)cc3)nc3c2cnn3C)CC1`: above 120 min; `O=C(Nc1cnc(-c2ccccc2)nc1)c1cccc(F)c1`: 52 min.
`N#Cc1cccc(CN2CCOC[C@H]2c2ncc(-c3ccc(F)cc3)[nH]2)c1` gave a half-life of 94.7 min.
Next, `Cn1ccc(NC(=O)c2ccc(-c3ncc4cnc(-c5cccc(F)c5)cn34)cc2)n1`: 33.2 min; `COc1ccc(CN2CC(Oc3ccc(F)c(C)c3)C2)cc1`: 21.6 min.
On to `COc1cccc(CN2CC[C@H](c3nnc(-c4ccco4)o3)C2)c1`, for which the half-life turned out to be 118 min.
With `COc1ccc(CN2CC(Oc3ccc(F)cc3C)C2)cc1` the figure was 21 min; with `CNC(=O)[C@@H]1CN(C(=O)c2cccc(OC)c2)C[C@H]1COC`, above 120 min.
With `CCOc1cc(=O)n2c(c1C(=O)Nc1ccc(C#N)cc1)CCCC2` the figure was 101 min.
With `COc1cccc(CN2CCOC[C@H](O)C2)c1` the figure was 28.2 min.
Compound `CC(=O)N1CCC(Cc2ccc(C(=O)NC3CC3)cc2)CC1` came in with a half-life of 80.1 min.
Next, `N#Cc1cccc(CN2C[C@@H](CO)[C@H](c3ccccn3)C2)c1`: 57.4 min; `N#Cc1ccc(CN2CCC3(CC2)CC(=O)c2ccccc2O3)cc1`: above 120 min; `Cc1cc(F)ccc1OC1CN(Cc2ccc(C#N)cc2)C1`: 35.4 min.
Next, `CN1CCC(OC2CCN(C(=O)c3cccc(F)c3)CC2)CC1`: above 120 min.
Turning to `N#Cc1ccccc1CN1CCC2(CC1)CC(O)CCO2` (configuration not stated), the half-life was 80.3 min.
Next, `COCCNc1nc(N)nc2c1CCN(C(=O)c1cscn1)CC2`: above 120 min.
With `COc1cccc(-c2c(C(=O)Nc3ccc(C)cc3)nc3sccn23)c1` the figure was 93 min; with `CN(CC1CCOC1)C(=O)Nc1cccc(F)c1` (configuration not stated), above 120 min.
Turning to `COCCNC(=O)c1nc2sccn2c1-c1cccc(C#N)c1`, the half-life is above 120 min.
Next, `N#Cc1ccc(C(=O)N2CCCOCCNC(=O)CC2)cc1`: above 120 min; `O=C(c1ccsc1)N1CCC(Oc2ccccc2)C1` (configuration not stated): 40 min; `Cc1ccsc1-c1[nH]nc2ncc(-c3ccccc3)nc12`: 18.5 min.
Next, `Cc1ccccc1-c1[nH]nc2ncc(-c3ccccc3C#N)nc12`: above 120 min; `COc1ccccc1-c1[nH]nc2ncc(-c3cccc(F)c3)nc12`: above 120 min.
Next, `CCOCCOC1CCN(C(=O)Nc2cccc(F)c2)CC1`: above 120 min.
`COc1ccc(CN2CCC3(COc4ccccc4C(=O)N3)C2)cc1` (configuration not stated) yielded a half-life of 34.7 min.
`Cc1noc(-c2cn(C3CCN(C(=O)c4ccccc4)C3)nn2)n1` (configuration not stated) gave a half-life above 120 min.
With `N#Cc1ccc(CN2CCC(N3Cc4cccn4C3=O)CC2)cc1` the figure was above 120 min; with `CN1CCC(OC2CCN(C(=O)c3ccccc3)CC2)CC1`, above 120 min.
Next, `O=C(N1CCN([S+](=O)([O-])c2ccccc2)CC1)N1CC2CC(C1)[C@H]1CCCC(=O)N1C2` (some centres not stated): above 120 min; `COc1cccc(-c2cn3c(n2)N(C(=O)c2ccco2)CCC3)c1`: 59.6 min; `Fc1cccc(-c2cnc(Nc3cccnc3)c3c2CCO3)c1`: above 120 min.
Compound `CN(Cc1cccc(F)c1)C1CCOc2ccccc21` (configuration not stated) yielded a half-life of 8.6 min.
Consider `N#Cc1cccc(-c2c(C(=O)NC3CC3)nc3sccn23)c1`, for which the half-life is 95.2 min.
Next, `CN(C)[C@@H]1CN(C(=O)c2ccc(C#N)cc2)C[C@H]1CO`: above 120 min; `COc1ccc(CN2CCC(N3Cc4cccn4C3=O)CC2)cc1`: above 120 min.
With `COc1cccc(-c2c(C(=O)N3CCOCC3)nc3sccn23)c1` the figure was above 120 min; with `Fc1cccc(Nc2ncc(-c3cccnc3)c3c2OCC3)c1`, 76.6 min; with `N#Cc1ccc(CN2CCC3(C2)NC(=O)c2ccccc2O3)cc1` (configuration not stated), above 120 min.
Next, `CCN1CCN(C(=O)c2nc3sccn3c2-c2cccc(C#N)c2)CC1`: above 120 min; `Cn1cnc2ccc(Nc3cccc(F)c3)nc2c1=O`: 115 min.
Take `N#Cc1ccc(CN2CC(N3CCc4ccccc43)C2)cc1`: the half-life is 96.8 min.

For the origin of these results see PubChem BioAssay AID1508603 (National Center for Advancing Translational Sciences (NCATS), 2020).
